From PubChem BioAssay (NCI)
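All cell lines were grown in 96-well plates and treated with compound for 48 hours. GI50 marks 50% less growth. TGI denotes the concentration required for complete inhibition of growth.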

Key:
Assay in all cases: inhibition of tumour cell growth, NCI panel, 48 h
A498 renal = test system: A498 renal
A549 NSCLC = test system: A549 NSCLC
HOP-92 NSCLC = test system: HOP-92 NSCLC
K-562 leukemia = test system: K-562 leukemia
LOX IMVI melanoma = test system: LOX IMVI melanoma
MDA-MB-435 = test system: MDA-MB-435
NCI/ADR-RES ovarian = test system: NCI/ADR-RES ovarian
OVCAR-8 ovarian = test system: OVCAR-8 ovarian
SN12C renal = test system: SN12C renal
TK-10 renal = test system: TK-10 renal

Row | Compound | TGI (A498 renal) [µM] | TGI (A549 NSCLC) [µM] | TGI (HOP-92 NSCLC) [µM] | TGI (K-562 leukemia) [µM] | TGI (LOX IMVI melanoma) [µM] | TGI (MDA-MB-435) [µM] | TGI (NCI/ADR-RES ovarian) [µM] | TGI (OVCAR-8 ovarian) [µM] | TGI (SN12C renal) [µM] | TGI (TK-10 renal) [µM] | GI50 (A498 renal) [µM] | GI50 (A549 NSCLC) [µM] | GI50 (HOP-92 NSCLC) [µM] | GI50 (K-562 leukemia) [µM] | GI50 (LOX IMVI melanoma) [µM] | GI50 (MDA-MB-435) [µM] | GI50 (NCI/ADR-RES ovarian) [µM] | GI50 (OVCAR-8 ovarian) [µM] | GI50 (SN12C renal) [µM] | GI50 (TK-10 renal) [µM]
1 | CC(=O)Oc1ccc(N2C(=O)C3c4[nH]c5ccccc5c4C4CCC(C(C)(C)C)CC4C3C2=O)cc1 (centres undefined) | 14.7 | 10.7 | 7.84 | 10.9 | 14.3 | 22.6 | 14.7 | 13.5 | 4.17 | 10.7 | – | – | – | – | – | – | – | – | – | –
2 | Cc1cccc(/C=N/NC(=S)NCc2ccccn2)n1 | > 100 | > 100 | 98.5 | > 100 | > 100 | > 100 | > 75.4 | > 100 | > 100 | > 100 | – | – | – | – | – | – | – | – | – | –
3 | CC(=O)OCCC1c2ccccc2-n2nc(-c3ccccc3)c(O)c21 (centres undefined) | 36.4 | 37.3 | 27.4 | 37.7 | 27.4 | 32.3 | 47 | 55.9 | 31.1 | 43.2 | – | – | – | – | – | – | – | – | – | –
4 | Cc1cc(C)c(S(=O)(=O)N[C@@H](/C=C(\Br)CO)C(C)C)c(C)c1 | 68 | > 100 | 75.5 | 50.4 | 36.3 | 34.1 | > 100 | > 100 | 32 | > 100 | – | – | – | – | – | – | – | – | – | –
5 | O=C1NCC2(CCNCC2)N1c1ccccc1 | > 100 | > 100 | > 100 | > 100 | > 100 | > 100 | > 100 | > 100 | > 100 | > 100 | – | – | – | – | – | – | – | – | – | –
6 | COc1ccc(/C=C2\CN(C(=O)CCN3CCC(=NO)CC3)C/C(=C\c3ccc(OC)cc3)C2=O)cc1 | 3.2 | 11.7 | 9.32 | > 100 | 2.96 | 3.49 | 20.8 | 16 | 5.92 | 10.4 | 1.6 | 3.28 | 2.34 | 1.2 | 1.47 | 1.76 | 3.72 | 3.22 | 2.27 | 2.86
7 | CC(=O)Nc1ccc(Nc2cc(=O)n(C)c(=O)[nH]2)cc1 | > 100 | > 100 | > 100 | > 100 | > 100 | > 100 | > 100 | > 100 | > 100 | > 100 | – | – | – | – | – | – | – | – | – | –
8 | Cc1ccc(/C=C2\CN(C)CC3C(c4ccc(C)cc4)=C(C#N)C(=O)NC23)cc1 (centres undefined) | > 50 | > 50 | > 50 | > 50 | > 50 | > 50 | > 50 | > 50 | > 50 | > 50 | – | – | – | – | – | – | – | – | – | –
9 | COC(=O)[C@@H]1C=C[C@@H](C#N)n2c(=O)n(-c3ccccc3)c(=O)n21 | > 100 | – | > 100 | > 100 | 48.4 | > 100 | 68 | 57.8 | 95 | > 100 | – | – | – | – | – | – | – | – | – | –
10 | O=C(NCCN1C(=O)CN=C(c2ccc(Cl)cc2)c2cc(Cl)ccc21)OCc1ccccc1 | 24.5 | 32.7 | 31.2 | 31.1 | 33.9 | 32.9 | 35.7 | 38.3 | 28.7 | 37.3 | – | – | – | – | – | – | – | – | – | –
11 | CC(C)C1CC=NN1C(=O)OC(C)(C)C (centres undefined) | > 100 | > 100 | > 100 | > 100 | > 100 | > 100 | > 100 | > 100 | > 100 | > 100 | – | – | – | – | – | – | – | – | – | –
12 | NS(=O)(=O)c1ccc(NC(=O)c2cc([N+](=O)[O-])cc([N+](=O)[O-])c2)cc1 | > 100 | > 100 | 91.3 | > 100 | 78.1 | 35 | > 100 | > 100 | 90.7 | > 100 | – | – | – | – | – | – | – | – | – | –
13 | Cc1nc(-c2ccccc2)c(C)n2c1nc1ccccc12 | > 100 | > 100 | 47.9 | > 100 | > 100 | 59.5 | 69.7 | 70.1 | > 100 | 84 | – | – | – | – | – | – | – | – | – | –
14 | CC(NC1=CC(=O)c2ncccc2C1=O)C(O)c1ccccc1 (centres undefined) | 27.7 | 12.8 | 27.9 | 13.2 | 13.3 | 3.02 | 43.1 | 36.2 | 24.9 | > 100 | – | – | – | – | – | – | – | – | – | –
15 | COC(=O)c1ccc2c(c1)CC1(C2)Cc2cc3c(c(C(=O)OC)c2C1)CCCC3 (centres undefined) | > 100 | > 100 | > 100 | > 100 | > 100 | > 100 | > 100 | > 100 | > 100 | > 100 | – | – | – | – | – | – | – | – | – | –
16 | CC(O)c1c2c(cc3c1CC1(C3)Cc3cc4c(c(C(C)O)c3C1)CCC4)CCC2 (centres undefined) | 29 | 33.1 | 31.6 | 26.8 | 32.8 | 31.9 | 70.4 | > 100 | 32 | 69.7 | – | – | – | – | – | – | – | – | – | –
17 | O=C1C(C(O)(C(F)(F)Cl)C(F)(F)Cl)CCC1C(O)(C(F)(F)Cl)C(F)(F)Cl (centres undefined) | > 10 | > 10 | 5.39 | > 10 | > 10 | > 10 | > 10 | > 10 | > 10 | > 10 | – | – | – | – | – | – | – | – | – | –
